One may read the EC50 as the concentration that produces a half-maximal response. As usually defined, the Ki is the dissociation constant of the complex between target and ligand, obtained from inhibition or displacement.

Assay [1] concerns the target 5-hydroxytryptamine receptor 4 (Rattus norvegicus, UniProt Q62758). As to the kind of experiment: Tested for its agonist potency against the 5-hydroxytryptamine 4 receptor located in the rat esophageal tunica muscularis mucosae. The assay is classed as functional, tissue-based, Muscularis mucosa.
In assay [2] the target is 5-hydroxytryptamine receptor 4 (Rattus norvegicus) (UniProt Q62758). As to the kind of experiment: Tested for its efficacy against the 5-hydroxytryptamine 4 receptor located in the rat esophageal tunica muscularis mucosae. The assay is classed as tissue-based. The conditions noted are these: Muscularis mucosa.
Sequence of 5-hydroxytryptamine receptor 4 (Rattus norvegicus) (Q62758 whole entry): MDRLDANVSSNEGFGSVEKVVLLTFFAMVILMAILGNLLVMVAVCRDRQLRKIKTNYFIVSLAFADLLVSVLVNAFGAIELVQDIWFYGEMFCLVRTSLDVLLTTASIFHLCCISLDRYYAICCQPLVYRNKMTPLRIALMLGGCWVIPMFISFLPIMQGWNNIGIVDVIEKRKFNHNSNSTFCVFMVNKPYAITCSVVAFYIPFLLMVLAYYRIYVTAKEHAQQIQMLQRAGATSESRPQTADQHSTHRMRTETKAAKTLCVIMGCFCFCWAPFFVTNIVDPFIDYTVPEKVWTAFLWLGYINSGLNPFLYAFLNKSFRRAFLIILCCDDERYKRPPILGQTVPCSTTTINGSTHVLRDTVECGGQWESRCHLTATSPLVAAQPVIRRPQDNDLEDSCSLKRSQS
For assay [3], the target named is T1, Serotonin 3 (5-HT3) receptor (Rattus norvegicus, UniProt P35563+Q9JJ16).
T1 sequence (P35563 whole entry): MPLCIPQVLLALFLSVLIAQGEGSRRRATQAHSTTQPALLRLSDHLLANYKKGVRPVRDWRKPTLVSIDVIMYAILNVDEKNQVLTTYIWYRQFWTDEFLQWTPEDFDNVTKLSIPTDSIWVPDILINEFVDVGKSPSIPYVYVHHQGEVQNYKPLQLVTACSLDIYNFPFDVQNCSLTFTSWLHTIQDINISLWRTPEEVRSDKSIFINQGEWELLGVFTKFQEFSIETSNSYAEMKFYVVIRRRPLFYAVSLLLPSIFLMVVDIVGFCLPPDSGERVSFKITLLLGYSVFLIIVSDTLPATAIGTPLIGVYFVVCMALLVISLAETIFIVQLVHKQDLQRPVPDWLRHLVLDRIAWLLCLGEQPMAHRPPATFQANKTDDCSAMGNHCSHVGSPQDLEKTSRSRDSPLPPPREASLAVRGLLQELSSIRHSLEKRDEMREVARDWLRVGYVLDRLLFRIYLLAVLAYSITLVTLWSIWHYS
T1 sequence (Q9JJ16 whole entry): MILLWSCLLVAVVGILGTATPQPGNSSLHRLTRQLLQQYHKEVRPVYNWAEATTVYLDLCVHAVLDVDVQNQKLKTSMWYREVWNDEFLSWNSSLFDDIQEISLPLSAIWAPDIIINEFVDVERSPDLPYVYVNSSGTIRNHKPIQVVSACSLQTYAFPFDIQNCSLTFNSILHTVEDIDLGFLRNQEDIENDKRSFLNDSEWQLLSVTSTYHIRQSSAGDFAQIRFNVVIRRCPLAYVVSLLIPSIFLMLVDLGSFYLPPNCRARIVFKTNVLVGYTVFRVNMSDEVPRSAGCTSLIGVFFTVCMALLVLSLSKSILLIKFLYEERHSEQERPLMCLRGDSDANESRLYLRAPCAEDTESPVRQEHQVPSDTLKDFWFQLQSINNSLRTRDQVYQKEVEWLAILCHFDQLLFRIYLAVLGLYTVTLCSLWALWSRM
As to the kind of experiment: Tested for its binding affinity by measuring its ability to displace [3H]granisetron from 5-hydroxytryptamine 3 receptor in rat cortex.

Sequence of 5-hydroxytryptamine receptor 4 (Q62758 whole entry): as the sequence (Q62758 whole entry) above

As to `CCn1c(=O)n(C(=O)NC2CC3CCC(C2)N3C)c2ccccc21` (centres undefined), the response in assay [1] was half-maximal at 10 nM (EC50). In assay [2], the Intrinsic activity came to 0.7. Also, the affinity in assay [3] corresponds to a Ki of 3.98 nM.

Consider `CCCC[N+]12CCCC(C1)C(NC(=O)c1cc(Cl)c(N)cc1OC)CC2` (centres undefined), for which a half-maximal effect in assay [1] (EC50) was put at 9.55 nM. The Intrinsic activity in assay [2] worked out at 0.79. The compound also showed a Ki in assay [3] of 126 nM.

Consider `COc1cc(N)c(Cl)cc1C(=O)NC1CCN2CCCC1C2` (centres undefined) [RENZAPRIDE], for which the EC50 in assay [1] turned out to be 63.1 nM. In addition, the Intrinsic activity in assay [2] came to 0.8. The same compound showed a Ki in assay [3] of 5.01 nM.

Turning to `CCN(CC)CCNC(=O)c1cc(Cl)c(N)cc1OC` [METOCLOPRAMIDE], the Intrinsic activity in assay [2] amounted to 0.8. Also, the Ki in assay [3] was 158 nM.

For `CC(C)n1c(=O)n(C(=O)NC2CC3CCC(C2)N3C)c2ccccc21` (centres undefined), in assay [1], the EC50 stood at 12.6 nM. In assay [2], this compound showed an Intrinsic activity of 0.9. Also, the Ki in assay [3] was 1.58 nM.
